Measured values from US10233191B2, “Fused piperidine amides as modulators of ion channels” (Vertex Pharmaceuticals Incorporated, priority 2013, dated 2019).
pIC50: −log10 of the molar value.

target: T1, NaV 1.7 (Homo sapiens, UniProt Q15858); assay: E-VIPR optical membrane potential assay with electrical stimulation; type: cell-based; settings: active against one or more sodium channels; assay/subtype not specified in Table 4; read-out: IC50 Binned Activity Data
T1 construct: expressed in transfected cells; host or cells: HEK cells
Method in brief: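 HEK cells expressing human NaV1.7, loaded with CC2-DMPE/DiSBAC6(3) FRET dyes, then exposed to compounds for 20-35 min at room temperature (0.625% DMSO). Electrical stimulation applied for 9 s with 400 Hz scanning. Read-out is the background-subtracted 460/580 nm emission ratio, normalized.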

T1 sequence (Q15858 whole entry): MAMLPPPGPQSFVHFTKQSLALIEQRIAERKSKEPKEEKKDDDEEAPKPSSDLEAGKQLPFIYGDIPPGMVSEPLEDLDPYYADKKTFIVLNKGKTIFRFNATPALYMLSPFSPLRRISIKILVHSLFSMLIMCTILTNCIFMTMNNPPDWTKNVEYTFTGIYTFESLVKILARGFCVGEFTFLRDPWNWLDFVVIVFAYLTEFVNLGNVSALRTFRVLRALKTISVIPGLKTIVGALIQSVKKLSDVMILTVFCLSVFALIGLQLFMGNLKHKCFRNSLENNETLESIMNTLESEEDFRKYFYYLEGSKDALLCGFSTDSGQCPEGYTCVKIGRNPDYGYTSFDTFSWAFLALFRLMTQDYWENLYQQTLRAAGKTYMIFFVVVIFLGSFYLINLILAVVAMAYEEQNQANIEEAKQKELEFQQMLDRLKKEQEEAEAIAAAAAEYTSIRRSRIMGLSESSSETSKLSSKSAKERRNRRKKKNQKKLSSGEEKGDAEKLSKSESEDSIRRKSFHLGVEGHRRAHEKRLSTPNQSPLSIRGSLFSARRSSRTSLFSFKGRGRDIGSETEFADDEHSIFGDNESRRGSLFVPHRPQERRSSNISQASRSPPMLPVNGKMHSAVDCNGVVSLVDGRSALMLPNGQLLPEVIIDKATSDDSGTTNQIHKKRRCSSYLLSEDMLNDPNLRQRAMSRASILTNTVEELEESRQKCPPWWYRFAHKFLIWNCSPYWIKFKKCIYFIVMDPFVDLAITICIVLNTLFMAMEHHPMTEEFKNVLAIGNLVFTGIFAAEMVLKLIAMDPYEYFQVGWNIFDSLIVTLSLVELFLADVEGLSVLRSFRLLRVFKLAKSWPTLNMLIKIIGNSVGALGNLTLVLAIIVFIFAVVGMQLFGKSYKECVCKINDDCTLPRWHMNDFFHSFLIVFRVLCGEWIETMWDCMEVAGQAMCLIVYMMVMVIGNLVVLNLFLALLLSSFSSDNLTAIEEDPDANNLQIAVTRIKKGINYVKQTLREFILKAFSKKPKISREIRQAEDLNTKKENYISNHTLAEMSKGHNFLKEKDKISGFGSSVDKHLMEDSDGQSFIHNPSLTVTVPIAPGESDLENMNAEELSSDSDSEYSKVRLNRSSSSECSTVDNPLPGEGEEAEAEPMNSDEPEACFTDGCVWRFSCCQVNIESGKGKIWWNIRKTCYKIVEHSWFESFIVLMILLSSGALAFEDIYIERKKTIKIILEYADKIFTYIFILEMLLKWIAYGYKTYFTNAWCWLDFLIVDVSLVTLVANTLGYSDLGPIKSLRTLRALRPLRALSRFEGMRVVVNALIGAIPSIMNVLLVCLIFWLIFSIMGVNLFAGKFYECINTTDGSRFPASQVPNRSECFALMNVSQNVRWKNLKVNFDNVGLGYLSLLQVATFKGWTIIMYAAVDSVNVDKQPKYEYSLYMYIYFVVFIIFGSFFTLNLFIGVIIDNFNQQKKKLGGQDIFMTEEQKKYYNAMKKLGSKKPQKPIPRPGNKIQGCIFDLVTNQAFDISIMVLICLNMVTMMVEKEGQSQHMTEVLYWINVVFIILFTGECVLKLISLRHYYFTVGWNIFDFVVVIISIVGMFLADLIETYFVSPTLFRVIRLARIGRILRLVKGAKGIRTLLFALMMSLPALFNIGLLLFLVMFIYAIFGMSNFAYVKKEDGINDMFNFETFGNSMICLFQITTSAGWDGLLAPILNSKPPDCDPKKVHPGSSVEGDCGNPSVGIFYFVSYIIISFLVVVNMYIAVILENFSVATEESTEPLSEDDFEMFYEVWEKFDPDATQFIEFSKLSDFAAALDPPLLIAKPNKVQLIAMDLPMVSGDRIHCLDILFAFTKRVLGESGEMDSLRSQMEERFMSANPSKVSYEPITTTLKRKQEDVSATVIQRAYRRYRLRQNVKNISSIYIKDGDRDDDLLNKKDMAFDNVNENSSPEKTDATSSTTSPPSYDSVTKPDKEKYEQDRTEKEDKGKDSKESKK

`COc1cc(C(=O)N2CC[C@@]3(c4ccccn4)COC3C2)ccc1OCC1CC(F)(F)C1` (stereo partly drawn) [Compound 210] and `COc1cc(C(=O)N2CCC3(c4ccccn4)C(C2)C3(F)F)ccc1OCC1CC(F)(F)C1` (stereo not drawn) [Compound 259] cannot be ordered by pIC50: 5.30 to 5.70 for the first, ≥ 5.70 for the second.

`COc1cc(C(=O)N2CC[C@]3(c4cccc(F)c4)OCOC3C2)ccc1NCC1CC(F)(F)C1` (stereo partly drawn) [Compound 211] and `COc1cc(C(=O)N2CC[C@@]3(c4cccc(F)c4)OCOC3C2)ccc1OCC1CC(F)(F)C1` (stereo partly drawn) [Compound 215] cannot be ordered by pIC50: ≥ 5.70 for the first, ≥ 5.70 for the second.

`COc1cc(C(=O)N2CC[C@@]3(c4cccc(F)c4)OCOC3C2)ccc1OC(C)C(F)(F)F` (stereo partly drawn) [Compound 212] and `COc1cc(C(=O)N2CC[C@]3(c4cccc(Cl)c4)OCOC3C2)ccc1O[C@H](C)C(F)(F)F` (stereo partly drawn) [Compound 243] cannot be ordered by pIC50: 5.30 to 5.70 for the first, ≥ 5.70 for the second.

`COc1nc(C(=O)N2CC[C@@]3(c4cccc(F)c4)OCOC3C2)ccc1OCC1(C(F)(F)F)CC1` (stereo partly drawn) [Compound 213] and `COc1nc(C(=O)N2CC[C@]3(c4cccc(F)c4)OCOC3C2)ccc1OCC1(C(F)(F)F)CC1` (stereo partly drawn) [Compound 268] cannot be ordered by pIC50: ≥ 5.70 for the first, ≥ 5.70 for the second.

`COc1cc(C(=O)N2CC[C@@]3(c4cccc(F)c4)OCOC3C2)ccc1OCCOC(F)(F)F` (stereo partly drawn) [Compound 214] and `COc1cc(C(=O)N2CC[C@]3(c4cccc(F)c4)OCOC3C2)ccc1OCCOC(F)(F)F` (stereo partly drawn) [Compound 228] cannot be ordered by pIC50: ≥ 5.70 for the first, ≥ 5.70 for the second.

`O=C(c1ccc(OCCOC(F)(F)F)c(Cl)c1)N1CC[C@@]2(c3cccc(F)c3)OCOC2C1` (stereo partly drawn) [Compound 216] and `O=C(c1ccc(OCCOC(F)(F)F)c(Cl)c1)N1CC[C@]2(c3cccc(F)c3)OCOC2C1` (stereo partly drawn) [Compound 255] cannot be ordered by pIC50: ≥ 5.70 for the first, ≥ 5.70 for the second.

`CC(C)(F)COc1ccc(C(=O)N2CC[C@@]3(c4cccc(F)c4)OCOC3C2)cc1Cl` (stereo partly drawn) [Compound 217] and `Cc1cc(C(=O)N2CC[C@]3(c4cccc(F)c4)OCOC3C2)ccc1OCC(C)(C)F` (stereo partly drawn) [Compound 256] cannot be ordered by pIC50: 5.30 to 5.70 for the first, ≥ 5.70 for the second.

Going from `O=C(c1ccc(OCCC(F)(F)F)c(C(F)(F)F)c1)N1CC[C@@]2(c3cccc(F)c3)OCOC2C1` (stereo partly drawn) [Compound 218] to `CC(C)(F)COc1ccc(C(=O)N2CC[C@@]3(c4cccc(F)c4)OCOC3C2)cc1C(F)(F)F` (stereo partly drawn) [Compound 219], the pIC50 falls from ≥ 5.70 to < 5.30.

`O=C(c1ccc(OCCOC(F)(F)F)c(F)c1)N1CC[C@@]2(c3cccc(F)c3)OCOC2C1` (stereo partly drawn) [Compound 220] and `CCOc1nc(C(=O)N2CC[C@]3(c4cccc(F)c4)OCOC3C2)ccc1OCCOC(F)(F)F` (stereo partly drawn) [Compound 249] cannot be ordered by pIC50: 5.30 to 5.70 for the first, ≥ 5.70 for the second.

`COc1cc(Cl)nc([C@]23CCN(C(=O)c4ccc(OCCOC(F)(F)F)c(OC)c4)CC2OCO3)c1` (stereo partly drawn) [Compound 221] and `COc1ccnc([C@]23CCN(C(=O)c4ccc(OCCOC(F)(F)F)c(Cl)c4)CC2OCO3)c1` (stereo partly drawn) [Compound 245] cannot be ordered by pIC50: ≥ 5.70 for the first, ≥ 5.70 for the second.

`COc1cc(C(=O)N2CC[C@]3(c4cc(C(F)(F)F)ccn4)OCOC3C2)ccc1OCCC1CC1(F)F` (stereo partly drawn) [Compound 222] and `COc1cc(C(=O)N2CC[C@]3(c4cc(C(F)(F)F)ccn4)OCOC3C2)ccc1OCC1CC(F)(F)C1` (stereo partly drawn) [Compound 226] cannot be ordered by pIC50: ≥ 5.70 for the first, ≥ 5.70 for the second.

`COc1nc(C(=O)N2CC[C@]3(c4cccc(F)c4)OCOC3C2)ccc1OCC1CC2(C1)CC(F)(F)C2` (stereo partly drawn) [Compound 223] and `COc1nc(C(=O)N2CC[C@]3(c4cccc(F)c4)OCOC3C2)ccc1OCC1CCC(F)(F)C1` (stereo partly drawn) [Compound 235] cannot be ordered by pIC50: ≥ 5.70 for the first, ≥ 5.70 for the second.

`COc1nc(C(=O)N2CC[C@]3(c4cccc(F)c4)OCOC3C2)ccc1OC(C)C1CC(F)(F)C1` (stereo partly drawn) [Compound 224] and `COc1nc(C(=O)N2CC[C@]3(c4cccc(F)c4)OCOC3C2)ccc1OC1CC(F)(F)C1` (stereo partly drawn) [Compound 233] cannot be ordered by pIC50: ≥ 5.70 for the first, ≥ 5.70 for the second.

`COc1cc(C(=O)N2CC[C@]3(c4cc(F)cc(F)c4)OCOC3C2)ccc1OCC1CC(F)(F)C1` (stereo partly drawn) [Compound 225] and `COc1cc(C(=O)N2CC[C@]3(c4cccc(C(F)(F)F)n4)OCOC3C2)ccc1OCC1CC(F)(F)C1` (stereo partly drawn) [Compound 275] cannot be ordered by pIC50: ≥ 5.70 for the first, ≥ 5.70 for the second.

`COc1nc(C(=O)N2CC[C@]3(c4cccc(F)c4)OCOC3C2)ccc1OCC(F)(F)C1CC1` (stereo partly drawn) [Compound 227] and `COc1nc(C(=O)N2CC[C@]3(c4cccc(F)c4)OCOC3C2)ccc1OC(C)C(F)(F)F` (stereo partly drawn) [Compound 264] cannot be ordered by pIC50: ≥ 5.70 for the first, ≥ 5.70 for the second.

`COc1nc(C(=O)N2CC[C@]3(c4cccc(F)c4)OCOC3C2)ccc1O[C@H]1CC2[C@H](C1)C2(F)F` (stereo partly drawn) [Compound 229] and `COc1nc(C(=O)N2CC[C@]3(c4cccc(F)c4)OCOC3C2)ccc1O[C@@H]1CC2[C@H](C1)C2(F)F` (stereo partly drawn) [Compound 230] cannot be ordered by pIC50: ≥ 5.70 for the first, ≥ 5.70 for the second.

`COc1nc(C(=O)N2CC[C@]3(c4cccc(F)c4)OCOC3C2)ccc1OC1CC=CC1` (stereo partly drawn) [Compound 231] and `COc1nc(C(=O)N2CC[C@]3(c4cccc(F)c4)OCOC3C2)ccc1OCC1CC=CC1` (stereo partly drawn) [Compound 232] cannot be ordered by pIC50: ≥ 5.70 for the first, ≥ 5.70 for the second.

`COc1nc(C(=O)N2CC[C@]3(c4cccc(F)c4)OCOC3C2)ccc1OC(C)C(F)(F)C(F)F` (stereo partly drawn) [Compound 234] and `COc1cc(C(=O)N2CC[C@]3(c4cccc(F)c4)OCOC3C2)ccc1OC(C)C(F)(F)C(F)F` (stereo partly drawn) [Compound 239] cannot be ordered by pIC50: ≥ 5.70 for the first, ≥ 5.70 for the second.

`COc1nc(C(=O)N2CC[C@]3(c4cccc(F)c4)OCOC3C2)ccc1OCC1CC2C(C1)C2(F)F` (stereo partly drawn) [Compound 236] and `COc1nc(C(=O)N2CC[C@]3(c4cccc(F)c4)OCOC3C2)ccc1OCC1CC(F)(F)C1(F)F` (stereo partly drawn) [Compound 254] cannot be ordered by pIC50: ≥ 5.70 for the first, ≥ 5.70 for the second.

`COc1nc(C(=O)N2CC[C@]3(c4cccc(F)c4)OCOC3C2)ccc1OCC1CC2C(C1)C2(F)F` (stereo partly drawn) [Compound 237] and `COc1cc(C(=O)N2CC[C@]3(c4cccc(F)c4)OCOC3C2)ccc1OCC1CC(F)C1` (stereo partly drawn) [Compound 240] cannot be ordered by pIC50: ≥ 5.70 for the first, ≥ 5.70 for the second.

`O=C(c1ccc(OCCOC(F)(F)F)c(Cl)c1)N1CCC2(c3ccccn3)CC2C1` (stereo not drawn) [Compound 238] and `O=C(c1ccc(OCCOC(F)(F)F)c(Cl)c1)N1CC[C@@]2(c3ccccn3)COC2C1` (stereo partly drawn) [Compound 253] cannot be ordered by pIC50: ≥ 5.70 for the first, ≥ 5.70 for the second.

`COc1cc(C(=O)N2CC[C@]3(c4cccc(F)c4)OCOC3C2)ccc1OCC1CCC1` (stereo partly drawn) [Compound 241] and `COc1cc(C(=O)N2CC[C@]3(c4cccc(F)c4)OCOC3C2)ccc1OCCC1CC1(F)F` (stereo partly drawn) [Compound 252] cannot be ordered by pIC50: 5.30 to 5.70 for the first, ≥ 5.70 for the second.

`COc1cc(C(=O)N2CC[C@]3(c4cccc(Cl)c4)OCOC3C2)ccc1O[C@@H](C)C(F)(F)F` (stereo partly drawn) [Compound 244] and `COc1cc(C(=O)N2CC[C@]3(c4cccc(F)c4F)OCOC3C2)ccc1O[C@H](C)C(F)(F)F` (stereo partly drawn) [Compound 257] cannot be ordered by pIC50: ≥ 5.70 for the first, ≥ 5.70 for the second.

`COc1ccnc([C@]23CCN(C(=O)c4ccc(OCC5CC(F)(F)C5)c(OC)n4)CC2OCO3)c1` (stereo partly drawn) [Compound 246] and `COc1nc(C(=O)N2CC[C@]3(c4cc(C(F)(F)F)ccn4)OCOC3C2)ccc1OCC1CC(F)(F)C1` (stereo partly drawn) [Compound 250] cannot be ordered by pIC50: ≥ 5.70 for the first, ≥ 5.70 for the second.

`O=C(c1ccc(OCCOC(F)(F)F)c(Cl)c1)N1CC[C@@]2(c3ccccn3)C(C1)C2(F)F` (stereo partly drawn) [Compound 247] and `COc1cc(C(=O)N2CCC3(c4ccccn4)C(C2)C3(F)F)ccc1OCCOC(F)(F)F` (stereo not drawn) [Compound 260] cannot be ordered by pIC50: ≥ 5.70 for the first, ≥ 5.70 for the second.

`O=C(c1ccc(OCCOC(F)(F)F)c(Cl)c1)N1CC[C@]2(c3cc(C(F)(F)F)ccn3)OCOC2C1` (stereo partly drawn) [Compound 248] and `COc1cc(C(=O)N2CC[C@]3(c4cc(C(F)(F)F)ccn4)OCOC3C2)ccc1OCCC(F)(F)F` (stereo partly drawn) [Compound 251] cannot be ordered by pIC50: ≥ 5.70 for the first, ≥ 5.70 for the second.

`COc1cc(C(=O)N2CC[C@]3(c4cccc(F)c4F)OCOC3C2)ccc1O[C@@H](C)C(F)(F)F` (stereo partly drawn) [Compound 258] and `COc1nc(C(=O)N2CC[C@]3(c4cccc(F)c4F)OCOC3C2)ccc1OC(C)C(F)(F)F` (stereo partly drawn) [Compound 263] cannot be ordered by pIC50: ≥ 5.70 for the first, ≥ 5.70 for the second.

First: O=C(c1ccc(S(=O)(=O)C(F)F)cc1)N1CC[C@]2(c3cccc(F)c3)OCOC2C1 (stereo partly drawn) [Compound 261]
Second: COc1cc(C(=O)N2CC[C@]3(c4cccc(C(F)(F)F)n4)OCOC3C2)ccc1OC(C)C(F)(F)F (stereo partly drawn) [Compound 273]
The pIC50 of the first is lower: < 5.30 for the first, ≥ 5.70 for the second.

`COc1nc(C(=O)N2CC[C@]3(c4cccc(F)c4F)OCOC3C2)ccc1OCC(F)(F)C(F)F` (stereo partly drawn) [Compound 262] and `COc1nc(C(=O)N2CC[C@]3(c4cccc(F)c4F)OCOC3C2)ccc1OCC1(C(F)(F)F)CC1` (stereo partly drawn) [Compound 271] cannot be ordered by pIC50: ≥ 5.70 for the first, ≥ 5.70 for the second.

`COc1nc(C(=O)N2CC[C@]3(c4ccccc4)OCOC3C2)ccc1OCC1(C(F)(F)F)CC1` (stereo partly drawn) [Compound 265] and `COc1nc(C(=O)N2CC[C@]3(c4cccc(Cl)c4)OCOC3C2)ccc1OCC1(C(F)(F)F)CC1` (stereo partly drawn) [Compound 270] cannot be ordered by pIC50: ≥ 5.70 for the first, ≥ 5.70 for the second.

Going from `COc1cc(C(=O)N2CC[C@@]3(c4ccccn4)CC3C2)ccc1OCCOC(F)(F)F` (stereo partly drawn) [Compound 266] to `COc1cc(C(=O)N2CC[C@]3(c4ccccn4)COC[C@@H]3C2)ccc1OCCOC(F)(F)F` [Compound 276], the pIC50 falls from ≥ 5.70 to < 5.30. The first is the more potent here.

`COc1nc(C(=O)N2CC[C@]3(c4cccc(C(F)(F)F)n4)OCOC3C2)ccc1OCC1CC(F)(F)C1` (stereo partly drawn) [Compound 267] and `COc1nc(C(=O)N2CC[C@]3(c4cccc(C(F)(F)F)n4)OCOC3C2)ccc1OCCOC(F)(F)F` (stereo partly drawn) [Compound 272] cannot be ordered by pIC50: ≥ 5.70 for the first, ≥ 5.70 for the second.

`[2H]C1([2H])OC2CN(C(=O)c3ccc(OCC4(C(F)(F)F)CC4)c(OC)n3)CC[C@]2(c2cc(F)cc(F)c2)O1` (stereo partly drawn) [Compound 269] and `COc1cc(C(=O)N2CC[C@]3(c4cccc(C(F)(F)F)n4)OCOC3C2)ccc1OCCC(F)(F)F` (stereo partly drawn) [Compound 274] cannot be ordered by pIC50: ≥ 5.70 for the first, ≥ 5.70 for the second.
